According to paper PMC3590912 (Journal of medicinal chemistry, 2012):

Tests used:
[1] = In vitro metabolic stability in hepatic microsomes with NADPH; details: for in vitro metabolic stability (in words): hepatic microsomes with NADPH, compared with 1
[2] = Pharmacokinetics and renal accumulation in mice; details: intraperitoneal bolus 400 μg, for many hours
mice = test: Urearetic activity: urine osmolality in mice under dDAVP stimulation; assay type: in vivo, mouse; details: 400 μg intraperitoneal, dDAVP 1 h later, versus formulation alone

| SMILES | in vitro metabolic stability (in words) [1] | improvement of in vitro metabolic stability compared to 1 [1] | 3k concentration in blood, kidney and urine [2] | reduction of urine osmolality (mice) |
| --- | --- | --- | --- | --- |
| O=S(=O)(c1ccc(C(F)(F)F)cc1)c1nnn2c1nc(NCc1cccs1)c1sccc12 [3c, Thiophen-2-ylmethyl-[3-(4-trifluoromethylbenzenesulfonyl)thieno[2,3-e][1,2,3]triazolo[1,5-a]pyrimidin-5-yl]amine] | improved metabolic stability |  |  |  |
| O=S(=O)(c1ccc(OC(F)(F)F)cc1)c1nnn2c1nc(NCc1cccs1)c1sccc12 [3d, Thiophen-2-ylmethyl-[3-(4-trifluoromethoxybenzenesulfonyl)thieno[2,3-e][1,2,3]triazolo-[1,5-a]pyrimidin-5-yl]amine] | improved metabolic stability |  |  |  |
| O=S(=O)(c1ccc(Br)cc1)c1nnn2c1nc(NCc1cccs1)c1sccc12 [3i, [3-(4-Bromobenzenesulfonyl)thieno[2,3-e][1,2,3]triazolo-[1,5-a]pyrimidin-5-yl]thiophen-2-ylmethylamine] | improved metabolic stability |  |  |  |
| CC(F)(F)c1ccc(S(=O)(=O)c2nnn3c2nc(NCc2cccs2)c2sccc23)cc1 [3k, [3-[4-(1,1-Difluoroethyl)benzenesulfonyl]thieno[2,3-e]-[1,2,3]triazolo[1,5-a]pyrimidin-5-yl]thiophen-2-ylmethylamine] |  | ~ 40 fold | > 1 µM | ~ 0.5 Osm/kg H2O |
